{
  "source": "ChEMBL document CHEMBL1121659",
  "about": "(J Med Chem, 1981)",
  "key": {"Mus musculus [1]": {"system": "Mus musculus", "assay": "Compound was evaluated for the dose required for protection against scMET-induced seizures after 4 hours of intraperitoneal administration; Inactive", "format": "functional, organism-based"}, "Mus musculus [2]": {"system": "Mus musculus", "assay": "Compound was evaluated for the neuro toxicity up to 4 hours after doses of <=300 mg/kg administered intraperitoneally; No toxicity", "format": "organism-based", "conditions": "in vivo, ip"}, "Mus musculus [3]": {"system": "Mus musculus", "assay": "Compound was evaluated for the dose required for protection against MES-induced seizures after 4 hours of intraperitoneal administration; Inactive", "format": "functional, organism-based"}},
  "note": "Calls of active or inactive are those of the source. No cut-off for these calls is given here.",
  "data": [
    {"smiles": "Cc1ccc(C2(c3cccc(C(F)(F)F)c3)NC(=O)NC2=O)cc1", "note": "(stereo in doubt; 7)", "values": [
      {"measurement": "Activity", "setting": "Mus musculus [1]", "value": "inactive"},
      {"measurement": "Neurotoxicity", "setting": "Mus musculus [2]", "value": "No toxicity"},
      {"measurement": "Activity", "setting": "Mus musculus [3]", "value": "inactive"}
    ]}
  ]
}
